We go through four molecules from ChEMBL document CHEMBL4219259, “Molecular Determinants Conferring the Stoichiometric-Dependent Activity of α-Conotoxins at the Human α9α10 Nicotinic Acetylcholine Receptor Subtype” (J Med Chem, 2018).

Peptide text beside a SMILES is read from it.

The target of experiment [1] is T1, Neuronal acetylcholine receptor; alpha9/alpha10 (Homo sapiens, UniProt Q9GZZ6+Q9UGM1, N154G). In words: Inhibition of human alpha9 N154G mutant/alpha10 nACHR (3:1) expressed in Xenopus laevis oocyte assessed as inhibition of ACh induced channel current measured for 2 to 5 days at -80 mV holding potential by two electrode voltage clamp method. A general note: In two-electrode clamp one electrode senses voltage and the other passes current.

Experiment [2] concerns the target T2, Neuronal acetylcholine receptor; alpha9/alpha10 (Homo sapiens, UniProt Q9GZZ6+Q9UGM1). The experiment is described as follows: Inhibition of human alpha9/alpha10 nACHR (3:1) expressed in Xenopus laevis oocyte assessed as inhibition of ACh induced channel current measured for 2 to 5 days at -80 mV holding potential by two electrode voltage clamp method.
Experiment [3] deals with T1, Neuronal acetylcholine receptor; alpha9/alpha10. In words: Inhibition of human alpha9 N154G mutant/alpha10 nACHR (1:3) expressed in Xenopus laevis oocyte assessed as inhibition of ACh induced channel current measured for 2 to 5 days at -80 mV holding potential by two electrode voltage clamp method.
For experiment [4], the target named is T2, Neuronal acetylcholine receptor; alpha9/alpha10. In words: Inhibition of human alpha9/alpha10 nACHR (1:3) expressed in Xenopus laevis oocyte assessed as inhibition of ACh induced channel current measured for 2 to 5 days at -80 mV holding potential by two electrode voltage clamp method.
The target is the same in experiment [5]. The experiment is described as follows: Inhibition of human alpha9/alpha10 nACHR (1:1) expressed in Xenopus laevis oocyte assessed as inhibition of ACh induced channel current measured for 2 to 5 days at -80 mV holding potential by two electrode voltage clamp method.
The target of experiment [6] is T3, Neuronal acetylcholine receptor; alpha9/alpha10 (Homo sapiens) (UniProt Q9UGM1+Q9GZZ6). The experiment is described as follows: Inhibition of human alpha9/alpha10 nACHR (2:3) expressed in Xenopus laevis oocyte assessed as inhibition of ACh induced channel current at 1 uM measured for 2 to 5 days at -80 mV holding potential by two electrode voltage clamp method.

Experiment [7] is filed under the species Homo sapiens. In words: Ratio of IC50 for human alpha9/alpha10 nACHR (1:3) to IC50 for human alpha9 N154G mutant/alpha10 nACHR (1:3).
Experiment [8] addresses Neuronal acetylcholine receptor; alpha9/alpha10 (Homo sapiens, UniProt Q9GZZ6+Q9UGM1, G154N). In words: Inhibition of human alpha9/alpha10 G154N mutant nACHR (1:3) expressed in Xenopus laevis oocyte assessed as inhibition of ACh induced channel current measured for 2 to 5 days at -80 mV holding potential by two electrode voltage clamp method.
Experiment [9] deals with T3, Neuronal acetylcholine receptor; alpha9/alpha10 (Homo sapiens). The experiment is described as follows: Inhibition of human alpha9/alpha10 nACHR (4:1) expressed in Xenopus laevis oocyte assessed as inhibition of ACh induced channel current at 1 uM measured for 2 to 5 days at -80 mV holding potential by two electrode voltage clamp method.
Experiment [10] is filed under the species Homo sapiens. In words: Ratio of IC50 for human alpha9/alpha10 nACHR (3:1) to IC50 for human alpha9 N154G mutant/alpha10 nACHR (3:1).
The target in experiment [11] is T3, Neuronal acetylcholine receptor; alpha9/alpha10 (Homo sapiens). In words: Inhibition of human alpha9 N154G mutant/alpha10 nACHR (3:1) expressed in Xenopus laevis oocyte assessed as inhibition of ACh induced channel current at 1 uM measured for 2 to 5 days at -80 mV holding potential by two electrode voltage clamp method.
Experiment [12] has the same target. In words: Inhibition of human alpha9 N154G mutant/alpha10 nACHR (1:3) expressed in Xenopus laevis oocyte assessed as inhibition of ACh induced channel current at 1 uM measured for 2 to 5 days at -80 mV holding potential by two electrode voltage clamp method.
Experiment [13] shares this target. In words: Inhibition of human alpha9/alpha10 nACHR (3:2) expressed in Xenopus laevis oocyte assessed as inhibition of ACh induced channel current at 1 uM measured for 2 to 5 days at -80 mV holding potential by two electrode voltage clamp method.

T1 sequence (Q9GZZ6 whole entry, looked up, stated change not applied): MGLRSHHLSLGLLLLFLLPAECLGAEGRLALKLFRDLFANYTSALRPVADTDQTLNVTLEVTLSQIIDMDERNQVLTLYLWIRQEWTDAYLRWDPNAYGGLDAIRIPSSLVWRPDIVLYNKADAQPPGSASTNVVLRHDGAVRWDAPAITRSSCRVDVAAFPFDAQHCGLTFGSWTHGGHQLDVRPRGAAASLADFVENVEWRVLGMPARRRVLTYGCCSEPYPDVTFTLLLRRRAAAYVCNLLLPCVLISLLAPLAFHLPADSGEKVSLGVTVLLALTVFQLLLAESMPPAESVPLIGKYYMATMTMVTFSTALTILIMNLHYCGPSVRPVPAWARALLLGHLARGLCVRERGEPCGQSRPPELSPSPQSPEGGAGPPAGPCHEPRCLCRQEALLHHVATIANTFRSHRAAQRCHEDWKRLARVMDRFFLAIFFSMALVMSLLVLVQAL
T1 sequence (Q9UGM1 whole entry, looked up, stated change not applied): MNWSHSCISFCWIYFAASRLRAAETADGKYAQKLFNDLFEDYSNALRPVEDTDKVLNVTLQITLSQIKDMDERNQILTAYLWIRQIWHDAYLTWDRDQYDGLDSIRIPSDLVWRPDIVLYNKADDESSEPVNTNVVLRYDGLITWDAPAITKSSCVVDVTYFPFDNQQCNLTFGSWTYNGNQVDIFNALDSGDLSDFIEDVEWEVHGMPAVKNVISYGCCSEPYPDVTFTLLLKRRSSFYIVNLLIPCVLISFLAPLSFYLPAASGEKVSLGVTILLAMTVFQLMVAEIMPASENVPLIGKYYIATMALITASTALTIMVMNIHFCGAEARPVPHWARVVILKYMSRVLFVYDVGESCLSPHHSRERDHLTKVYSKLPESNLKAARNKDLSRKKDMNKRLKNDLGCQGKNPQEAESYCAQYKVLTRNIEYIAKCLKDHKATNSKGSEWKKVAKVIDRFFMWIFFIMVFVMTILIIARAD
T2 sequence (Q9UGM1 whole entry): as the sequence (Q9UGM1 whole entry, looked up, stated change not applied) above
T2 sequence (Q9GZZ6 whole entry): as the sequence (Q9GZZ6 whole entry, looked up, stated change not applied) above
Sequence of Neuronal acetylcholine receptor; alpha9/alpha10 (Homo sapiens, UniProt Q9GZZ6+Q9UGM1, G154N) (Q9GZZ6 whole entry, looked up, stated change not applied): as above
Sequence of Neuronal acetylcholine receptor; alpha9/alpha10 (Homo sapiens, UniProt Q9GZZ6+Q9UGM1, G154N) (Q9UGM1 whole entry, looked up, stated change not applied): as the sequence (Q9UGM1 whole entry, looked up, stated change not applied) above

As usually defined, the IC50 is the midpoint of a concentration-inhibition curve. Consider `CC(C)[C@@H]1NC(=O)[C@H](CO)NC(=O)[C@@H]2CSSC[C@H](NC(=O)CN)C(=O)N[C@@H](CSSC[C@@H](C(N)=O)NC(=O)[C@H](CCCCN)NC(=O)[C@H](CC(N)=O)NC(=O)[C@@H]3CCCN3C(=O)[C@H](Cc3ncc[nH]3)NC(=O)[C@H](CC(=O)O)NC1=O)C(=O)N[C@@H](CO)C(=O)N[C@@H](CC(=O)O)C(=O)N1CCC[C@H]1C(=O)N[C@@H](CCCNC(=N)N)C(=O)N2` (HELM PEPTIDE1{G.C.C.S.D.P.R.C.S.V.D.[O=C([C@H](Cc1ncc[nH]1)N[*:1])[*:2]].P.N.K.C.[am]}$PEPTIDE1,PEPTIDE1,2:R3-8:R3|PEPTIDE1,PEPTIDE1,3:R3-16:R3$$$V2.0), for which the IC50 in [1] was found to be 15.2 µM; in experiment [2], 9.3 µM; in experiment [3] it was 13 µM; in experiment [4], 13.2 µM.
With `N=C(N)NCCC[C@@H]1NC(=O)[C@H](Cc2ccc(O)cc2)NC(=O)[C@H](CCCNC(=N)N)NC(=O)[C@@H]2CSSC[C@H](NC(=O)CN)C(=O)N[C@@H](CSSC[C@@H](C(N)=O)NC1=O)C(=O)N[C@@H](CO)C(=O)N[C@@H](CC(=O)O)C(=O)N1CCC[C@H]1C(=O)N[C@@H](CCCNC(=N)N)C(=O)N2` (HELM PEPTIDE1{G.C.C.S.D.P.R.C.R.Y.R.C.[am]}$PEPTIDE1,PEPTIDE1,2:R3-8:R3|PEPTIDE1,PEPTIDE1,3:R3-12:R3$$$V2.0), in experiment [5], the IC50 came to 249 µM.
On to `CC[C@H](C)[C@@H]1NC(=O)[C@H](CC(N)=O)NC(=O)[C@@H]2CCCN2C(=O)[C@H](Cc2ncc[nH]2)NC(=O)[C@H](CC(=O)O)NC(=O)[C@H](Cc2ccc(O)cc2)NC(=O)[C@H](CC(N)=O)NC(=O)[C@@H]2CSSC[C@H](NC(=O)CN)C(=O)N[C@@H](CSSC[C@@H](C(N)=O)NC1=O)C(=O)N[C@@H](CO)C(=O)N[C@@H](CC(=O)O)C(=O)N1CCC[C@H]1C(=O)N[C@@H](CCCNC(=N)N)C(=O)N2` (HELM PEPTIDE1{G.C.C.S.D.P.R.C.N.Y.D.[O=C([C@H](Cc1ncc[nH]1)N[*:1])[*:2]].P.N.I.C.[am]}$PEPTIDE1,PEPTIDE1,2:R3-8:R3|PEPTIDE1,PEPTIDE1,3:R3-16:R3$$$V2.0), for which the IC50 came to 8.59 µM in experiment [1], 10.8 µM in [2], 10.2 µM in experiment [3] and 17.5 µM in experiment [4].
Broadly, the inhibition is the share of the control response that was lost under treatment. On to `CC[C@H](C)[C@@H]1NC(=O)[C@H](CCC(=O)O)NC(=O)[C@@H]2CCCN2C(=O)[C@H](Cc2ncc[nH]2)NC(=O)[C@H](CC(=O)O)NC(=O)[C@H](Cc2ccc(O)cc2)NC(=O)[C@H](CC(N)=O)NC(=O)[C@@H]2CSSC[C@H](NC(=O)CN)C(=O)N[C@@H](CSSC[C@@H](C(N)=O)NC1=O)C(=O)N[C@@H](CO)C(=O)N[C@@H](CC(=O)O)C(=O)N1CCC[C@H]1C(=O)N[C@@H](CCCNC(=N)N)C(=O)N2` (HELM PEPTIDE1{G.C.C.S.D.P.R.C.N.Y.D.[O=C([C@H](Cc1ncc[nH]1)N[*:1])[*:2]].P.E.I.C.[am]}$PEPTIDE1,PEPTIDE1,2:R3-8:R3|PEPTIDE1,PEPTIDE1,3:R3-16:R3$$$V2.0), for which the IC50 is 17 µM in experiment [1]; 1 µM in [5]; 0.75 µM in experiment [8]; 0.75 µM in experiment [2]; 11.3 µM in experiment [3]; 3.57 µM in [4]. In addition, the inhibition was determined as 25.5% in experiment [6]; 65.8% in experiment [9]; 21.8% in experiment [11]; 19.5% in experiment [12]; 65.8% in experiment [13]. In addition, the Ratio IC50 in the experiment listed under Homo sapiens [7] was determined as 3; in the experiment listed under Homo sapiens [10], 23.
